One assay deals with TLR4. The assay is described as follows: LPS-induced MAPK (ERK, JNK, p38) activation in mouse macrophages (Western analysis). Format: cell-based. The note with it: for LPS-induced ERK phosphorylation / LPS-induced JNK activation: 30 min LPS 10 ng/ml. As for the experimental part: Cellular protein extracts were isolated by addition of 240 μL per well cold lysate buffer (20 mM Tris, 50 mM NaCl, 1.5 mM MgCl2, 2 mM EDTA, 10 mM NaF, 2 Mm DTT, 1 mM Na3VO4, 1% Triton). Cells were incubated with lysis solution for 30 min on agitator at 4° C. Lysate was then collected and centrifuged at 14,000 g for 10 minutes at 4° C. After quantification using BioRad protein assay, protein samples were added to Laemmli buffer and then boiled for 10 min. Samples were then resolved by SDS-10% PAGE in Tris/glycine/SDS buffer (25 mM Tris, 250 mM glycine, 0.1% SDS), and transferred onto Immobilon P transfer membranes (Millipore, Bedford, Mass.) (100 V, 1.5 h, 4° C.). Membranes were blocked for 1 h in TBS-T (20 mM Tris-HCl, 150 mM NaCl, 0.1% Tween 20) containing 5% nonfat milk, then probed for overnight at 4° C. with the respective antibodies (Abs) (dilution 1:1000 in TBS-T with 2% BSA). After washing in TBS-T, membranes were incubated with secondary HRP-conjugated, donkey anti-rabbit IgG (1:10,000 dilution in TBS-T with 5% nonfat milk) for 1 h at room temperature. Membranes washed five times in TBS-T before development with ECL reagents (GE Healthcare) according to manufacturer's directions.
HEK293T cells were transfected with indicated plasmids using Superfect Transfection Reagent (Qiagen). Twenty-four hours posttransfection, the cells were lysed using the buffer containing 20 mM HEPES (pH 7.4), 150 mM NaCl, 10 mM NaF, 2 mM Na3VO4, 1 mM EDTA, 1 mM EGTA, 0.5% Triton X-100, 0.1 M DTT, 1 mM PMSF, and protease inhibitor mixture (Roche, Indianapolis, Ind.). Rabbit Ab against phospho-ERK, phospho-JNK, MyD88 (D80F5), STAT1-Y701, total STAT1, and GAPDH were purchased from Cell Signaling Technology (Beverly, Mass.). Rabbit anti-phospho-p38 Ab was purchased from Promega (Madison, Wis.). Goat anti-TLR4 (M−16), rabbit anti-TLR4 (H-80), anti-HA-HRP (F-7), and rabbit anti-b-actin Ab were purchased from Santa Cruz Biotechnology. Mouse anti-Flag M2 and rabbit anti-HA Ab were from Sigma-Aldrich. GFP Ab (A1122) was from Invitrogen. Protein was quantified using Bio-Rad protein quantification kit. Equal amount of protein was loaded and analyzed by 10% SDS-PAGE and immunoblotting. The cell extracts containing equal amount of protein were incubated with 1 μg Ab for 2 h, followed by 4-h incubation with 25 μl protein G agarose beads (Roche); the beads were then washed four times with lysis buffer, boiled in […] sample loading buffer, and analyzed by immunoblotting.
(§1) We next examined whether TRAM peptides inhibit the TLR4-mediated p38, ERK, and JNK MAPK activation. Murine macrophages pretreated with peptides for 30 min were challenged with LPS. Cell lysates were collected 30 min post-stimulation and analyzed for MAPK phosphorylation by Western analysis. Consistent with peptide effects on steady-state mRNA, both TM4 and TM6 inhibited activation of all three MAPKs (FIG. 5C). The inhibition of MAPKs by TM4 or TM6 was long lasting; it persisted for at least 1 h after LPS stimulation (data not shown). To characterize further the effects of TRAM peptides on MAPKs, murine macrophages were treated with TRAM peptides, but not challenged by LPS.

The subject of another assay is C57BL/6J mice. The assay is described as follows: In vivo efficiency of decoy peptides (Table 1; LPS challenge in mice). More on the design: species or system mouse. On the procedure:
FIG. 4. Effect of select TRAP decoy peptides on TNF-α and IL-6 in blood following an ip LPS challenge. C57BL/6J mice were injected with TR5, TR6, or TR7 peptide or mock-treated 1 hour before injection of purified E. coli LPS. Peptides and LPS were injected to mice intraperitonealy 10 nmol or 1 μg per gram of animal weight, correspondingly.
FIG. 10. […] (A-E) C57BL/6J mice were injected i.p. with purified Escherichia coli K235 LPS (1 μg/g) or PBS. Peptides (10 nmol/g of animal weight) were injected i.p. (A, B, D, E) or i.v. (C) 1 h before (A, B, and C) or 30 min after (D, E) i.p. injection of LPS. Data in panels A and D show plasma IL-6 and TNF-α levels measured 2 h after LPS challenge. Peptide TM8/9 was used as a non-inhibitory control peptide. Data represent the means±s.e.m. for 6-12 blood samples obtained in at least three independent experiments. *p<0.01. (F, G) C57BL/6J mice were challenged i.p. with a lethal LPS dose (17.5 μg/g). Peptides (10 nmol/g) were injected i.p. 1 h before LPS challenge. […] The statistical significance of changes in mortality and survival time was determined by the Mantel Cox log-rank test using GraphPad Prism software (Version 5.04). *p<0.01.
Eight-week-old C57BL/6J mice were injected with 1 or 17.5 μg/g animal weight of E. coli K235 LPS i.p. Peptides reconstituted in PBS were administered i.p. or i.v. Control groups received equivalent volume of solvent (PBS). The blood samples were collected 1, 2, 4, and 8 h, or 2, 8, and 24 h after LPS challenge. The plasma samples were obtained and kept frozen until TNF-α and IL-6 were measured by ELISA. Survival of animals was monitored every 6-16 h after LPS challenge. All animal experiments were carried out with institutional approval.

In a further assay the test system is MAPK (ERK, JNK, p38). The assay is described as follows: MAPK activation by peptide alone, macrophages without TLR agonist. Format: cell-based, mouse. The following applies: 20 μM peptide, 1 hour incubation. As for the experimental part:
Neither TIRAP peptide activated ERK in cells incubated without a TLR agonist (not shown). […] The mechanism of this differential MAPK activation by select peptides, although interesting, is not understood at this time. Peptides TR9 and TR11 inhibited both ERK and JNK MAPKs (FIG. 1D). Peptide-induced inhibition of ERK persisted over a long period of time.
as §1

Residues, ends and D or L forms follow the SMILES beside them. No end group written: not given here.

Data on six compounds can be found in patent US20130203649A1, “INHIBITORS OF TLR SIGNALING BY TARGETING TIR DOMAIN INTERFACES” (UNIVERSITY OF MARYLAND, BALTIMORE, priority 2012, published 2013).

As to `CC[C@H](C)[C@H](NC(=O)[C@H](CCCCN)NC(=O)[C@@H](NC(=O)[C@H](CCC(N)=O)NC(=O)[C@@H](N)CCCNC(=N)N)[C@@H](C)CC)C(=O)N[C@@H](Cc1c[nH]c2ccccc12)C(=O)N[C@@H](Cc1ccccc1)C(=O)N[C@@H](CCC(N)=O)C(=O)N[C@@H](CC(N)=O)C(=O)N[C@@H](CCCNC(=N)N)C(=O)N[C@@H](CCCNC(=N)N)C(=O)N[C@@H](CCSC)C(=O)N[C@@H](CCCCN)C(=O)N[C@@H](Cc1c[nH]c2ccccc12)C(=O)N[C@@H](CCCCN)C(=O)N[C@@H](CCCCN)C(=O)N[C@@H](CCC(=O)O)C(=O)N[C@@H](CC(C)C)C(=O)N[C@@H](CS)C(=O)N[C@@H](CCC(N)=O)C(=O)N[C@@H](C)C(=O)N[C@@H](CC(C)C)C(=O)N[C@@H](CO)C(=O)N[C@@H](CCCNC(=N)N)C(=O)N[C@@H](CO)C(=O)N[C@@H](Cc1c[nH]cn1)C(=O)N[C@@H](CS)C(=O)N[C@@H](CCCNC(=N)N)C(=O)O` [TR5] (H-RQIKIWFQNRRMKWKKELCQALSRSHCR-OH), the “LPS-induced ERK phosphorylation” value in the assay with TLR4 (20 μM peptide) is reported as “potently inhibited”. Besides, the In vivo efficiency result with C57BL/6J mice is recorded as “yes, i.p”.

Regarding RQIKIWFQNRRMKWKKAAYPPELRFMYYVD [TR9], in the assay on TLR4 (20 μM peptide), the “LPS-induced ERK phosphorylation” value is “potently inhibited” and the “LPS-induced JNK activation” value is on record as “inhibited”.

As to RQIKIWFQNRRMKWKKCLQDAIDHSGFT [TF5], the “LPS-induced p38, ERK, and JNK MAPK activation” value in the assay with TLR4 (lysates 30 min after LPS) is “inhibit”. In the assay on C57BL/6J mice, the In vivo efficiency result is reported as “Yes, i.p”.

Regarding RQIKIWFQNRRMKWKKEGSQASLRCF [TR3], the “JNK activation in macrophages without TLR agonist” value in the assay with MAPK (ERK, JNK, p38) is on record as “moderately activated”. Besides, in the assay with TLR4 (20 μM peptide), the “LPS-induced ERK phosphorylation” value is “potently inhibited” and the “LPS-induced JNK activation” value was “apparent absence of JNK inhibition”.

For the compound RQIKIWFQNRRMKWKKGGFYQVKEAVIHY [TR11], in the assay on TLR4 (20 μM peptide), the “LPS-induced ERK phosphorylation” value is recorded as “potently inhibited” and the “LPS-induced JNK activation” value is listed as “inhibited”.

Take RQIKIWFQNRRMKWKKPGFLRDPWCKYQML [TR6]: in the assay with MAPK (ERK, JNK, p38), the “JNK activation in macrophages without TLR agonist” value is given as “moderately activated”. In the assay on TLR4 (20 μM peptide), the “LPS-induced ERK phosphorylation” value is listed as “potently inhibited” and the “LPS-induced JNK activation” value was “apparent absence of JNK inhibition”. Besides, the “LPS-induced activation of p38 and ERK MAPKs” value with TLR4 (20 μM peptide, LPS 30 min) was “potently inhibited”. For the same compound, the In vivo efficiency entry in the assay with C57BL/6J mice is given as “yes, i.p”.
